Measured values from article PMC6269853, “Synthesis and Biological Evaluation of Unsymmetrical Curcumin Analogues as Tyrosinase Inhibitors” (Molecules, 2013).

What was measured:
mushroom tyrosinase [1] = test: Diphenolase inhibitory activity of mushroom tyrosinase (L-DOPA oxidation, spectrophotometric); assay type: biochemical; settings: for IC50: L-DOPA 0.5 mM, pH 6.8, 25 °C
Experimental: UCAs 3a–k, 4a–i were subjected to tyrosinase inhibitory assays by measuring the oxidation of L-DOPA according to the literature protocol.
The spectrophotometric assay for tyrosinase was performed according to the reported method with slight modifications. Briefly, all the synthesized compounds were screened for the diphenolase inhibitory activity of tyrosinase using L-DOPA as the substrate. All compounds were dissolved in DMSO. The final concentration of the test solution was 2.0%. Phosphate buffer (pH = 6.8) was used to dilute the DMSO stock solution of test compounds. Thirty units of mushroom tyrosinase (0.5 mg/mL) were firstly pre-incubated with these compounds in 50 mM phosphate buffer (pH = 6.8) at 25 °C for 10 min. L-DOPA (0.5 mM) was then added to the reaction mixture and the enzyme reaction was monitored by measuring the change in absorbance at 475 nm of the formation of L-DOPA chrome for 1 min. The measurement was performed for three times for each concentration and averaged before further calculations. IC50 values were determined by the interpolation of the dose–response curves.

mushroom tyrosinase [2] = test: Inhibition kinetics by Lineweaver-Burk plots; assay type: biochemical; settings: oxidation of L-DOPA
Experimental: The inhibitory mechanism of selected compounds 3c, 3d, 3i and 3j against mushroom tyrosinase during the oxidation of L-DOPA was determined by the same methods. […] However, 3d and 3j containing m-dihydroxyl groups on ring B were competitive inhibitors because the intersection of those straight lines was on the Y-axis.
Concentrations of 3c, 3d, 3i and 3j for curves 1–3 were 0.0 μM, 4.06 μM, 12.18 μM; 0.0 μM, 4.06 μM, 16.23 μM; 0.0 μM, 14.8 μM, 59.2 μM; 0.0 μM, 3.70 μM, 11.09 μM, respectively.
Pre-incubation and measurement time was the same as the procedure in section 3.3. Maximal initial velocity was determined from initial linear portion of absorbance between 0 and 60 s after addition of mushroom tyrosinase. The inhibition type on the enzyme was assayed by Lineweaver–Burk plots, and the inhibition constant was determined by the second plots of the apparent Km/Vm or 1/Vm versus the concentration of compound. The same procedure was executed for other compounds.

CD-1 mice = test: Acute oral toxicity in mice (OECD 423); assay type: in vivo; settings: for Body Weight: last day; for Drinking Water / Food Intake: measured daily and averaged; for autopsy, changes in organs: mice, 1,200 mg/kg, end of experimental period (14 days)
Experimental: 3d and 3j were used as the representative compounds to evaluate the toxicity in mice.
The acute toxicity of compound 3d was examined according to the OECD 423 Guideline for Testing of Chemicals Acute Oral Toxicity – Acute Toxic Class Method procedures. The test procedure was applied with an initial dose at 1,200 mg/kg. Male and female CD-1 mice (six males and six females; 7~8 weeks old) were obtained from Center of Animal Test of the Sun Yat-sen University, housed in the University-approved animal facility in rooms maintained at 22 ± 2 °C with 55%–60% humidity and 12 h photoperiod. After five-day adaptation to laboratory conditions, mice were divided into four equal groups (controls: male, female, and treated: male and female, three animals in each group, equal body mass) and given by gavage either a single dosage of 1,200 mg 3d (dispersed in 3% Tween 80 aqueous solution)/kg, and equal volumes of distilled water containing 3% Tween 80 for control groups, using a suitably graduated syringe and a stainless steel intubation cannula. Mice had free access to distilled water and commercial standard diet. Animals were observed individually after dosing at least once during the first 30 min, periodically during the first 24 h, with special attention given during the first 4 h, and daily thereafter, for a total of 14 days. All observations were systematically recorded with individual records being maintained for each animal. Individual body weight of animals was determined shortly before the test substance was administered and weekly thereafter. All the animals were sacrificed at the end of the observation period and subjected to a necropsy. The same procedure was performed for compound 3j.

Compound	melting point	IC50 (mushroom tyrosinase [1])	other results
COc1cc(C=C2CCC(=Cc3ccc(O)c(O)c3)C2=O)ccc1O [Compound 3i, 2-(3,4-Dihydroxybenzylidene)-5-(4-hydroxy-3-methoxybenzylidene)cyclopentanone]	> 300 °C	–	inhibition type (mushroom tyrosinase [2]): mixed-competitive
CCCCc1ccc(O)cc1O [4-Butylresorcinol, reference compound]	–	11.3 µM	–
COc1cc(C=C2CCC(=Cc3cc(OC)c(O)c(OC)c3)C2=O)ccc1O [Compound 3k, 2-(4-Hydroxy-3,5-dimethoxybenzylidene)-5-(4-hydroxy-3-methoxybenzylidene)cyclopentanone]	129 to 131 °C	> 200 µM	–
O=C1C(=Cc2ccc(O)cc2)CCC1=Cc1ccc(O)c(O)c1 [Compound 3c, 2-(3,4-Dihydroxybenzylidene)-5-(4-hydroxybenzylidene)cyclopentanone]	> 300 °C	7.78 µM	inhibition type (mushroom tyrosinase [2]): mixed-competitive
COc1ccc(C=C2CCC(=Cc3ccc(O)cc3)C2=O)cc1 [Compound 3a, 2-(4-Hydroxybenzylidene)-5-(4-methoxybenzylidene)cyclopentanone]	241 to 243 °C	189 µM	–
CC(C)(C)c1cc(C=C2CCC(=Cc3ccc(O)cc3)C2=O)cc(C(C)(C)C)c1O [Compound 3f, 2-(3,5-Di-tert-butyl-4-hydroxybenzylidene)-5-(4-hydroxybenzylidene)cyclopentanone]	233 to 235 °C	168 µM	–
COc1cc(C=C2CCC(=Cc3ccc(O)cc3)C2=O)cc(OC)c1O [Compound 3e, 2-(4-Hydroxy-3,5-dimethoxybenzylidene)-5-(4-hydroxybenzylidene)cyclopentanone]	259 to 261 °C	9.66 µM	–
O=C1C(=Cc2ccc(O)cc2)CCC1=Cc1ccc(O)cc1O [Compound 3d, 2-(2,4-Dihydroxybenzylidene)-5-(4-hydroxybenzylidene)cyclopentanone]	–	1.74 µM	Body Weight (CD-1 mice; female CD-1 mice, 1,200 mg/kg): 27.3 ± 2.9 g; Drinking Water (CD-1 mice; female CD-1 mice, 1,200 mg/kg): 4.2 ± 0.5 mL/day; Food Intake (CD-1 mice; female CD-1 mice, 1,200 mg/kg): 4.0 ± 0.4 g/day; Body Weight (CD-1 mice; male CD-1 mice, 1,200 mg/kg): 30.9 ± 2.6 g; Drinking Water (CD-1 mice; male CD-1 mice, 1,200 mg/kg): 5.6 ± 0.6 mL/day; Food Intake (CD-1 mice; male CD-1 mice, 1,200 mg/kg): 5.1 ± 0.5 g/day; autopsy, changes in organs (CD-1 mice): no apparent changes; fold lower IC50 than kojic acid (mushroom tyrosinase [1]): about 16 fold; course of enzyme activity inhibition (mushroom tyrosinase [1]; diphenolase activity, L-DOPA, 25 °C, Figure 1): concentration-dependent; fold lower IC50 than 4-butylresorcinol (mushroom tyrosinase [1]; vs 4-butylresorcinol (11.27 μM)): ~6 fold; inhibition type (mushroom tyrosinase [2]): competitive
COc1cc(C=C2CCC(=Cc3ccc(O)cc3O)C2=O)ccc1O [Compound 3j, 2-(2,4-Dihydroxybenzylidene)-5-(4-hydroxy-3-methoxybenzylidene)cyclopentanone]	–	–	Body Weight (CD-1 mice; female CD-1 mice, 1,200 mg/kg): 26.9 ± 2.1 g; Drinking Water (CD-1 mice; female CD-1 mice, 1,200 mg/kg): 4.1 ± 0.4 mL/day; Food Intake (CD-1 mice; female CD-1 mice, 1,200 mg/kg): 3.9 ± 0.5 g/day; Body Weight (CD-1 mice; male CD-1 mice, 1,200 mg/kg): 30.1 ± 2.8 g; Drinking Water (CD-1 mice; male CD-1 mice, 1,200 mg/kg): 5.4 ± 0.5 mL/day; Food Intake (CD-1 mice; male CD-1 mice, 1,200 mg/kg): 5.2 ± 0.4 g/day; autopsy, changes in organs (CD-1 mice): no apparent changes; inhibition type (mushroom tyrosinase [2]): competitive
O=C1C(=Cc2ccc(O)cc2)CCC1=Cc1cc(Br)c(O)c(Br)c1 [Compound 3h, 2-(3,5-Dibromo-4-hydroxybenzylidene)-5-(4-hydroxybenzylidene)cyclopentanone]	286 to 288 °C	> 200 µM	–
COc1cc(C=C2CCC(=Cc3ccc(O)cc3)C2=O)cc(Br)c1O [Compound 3g, 2-(3-Bromo-4-hydroxy-5-methoxybenzylidene)-5-(4-hydroxybenzylidene)cyclopentanone]	241 to 243 °C	173 µM	–
COc1cc(C=C2CCC(=Cc3ccc(O)cc3)C2=O)ccc1O [Compound 3b, 2-(4-Hydroxy-3-methoxybenzylidene)-5-(4-hydroxybenzylidene)cyclopentanone]	278 to 280 °C	56.6 µM	fold difference in activity versus 3c (mushroom tyrosinase [1]; decrease relative to 3c): > 8 fold

Further lines, with some results ahead:

melting point	IC50 (mushroom tyrosinase [1])	Compound	other results
114 to 116 °C	183 µM	COc1ccc(C=CC(=O)C=Cc2ccc(O)cc2)cc1 [Compound 4a, 1-(4-Hydroxyphenyl)-5-(4-methoxyphenyl)penta-1,4-dien-3-one]	–
110 to 113 °C	> 200 µM	O=C(C=Cc1ccc(O)cc1)C=Cc1cc(Br)c(O)c(Br)c1 [Compound 4e, 1-(3,5-Dibromo-4-hydroxyphenyl)-5-(4-hydroxyphenyl)penta-1,4-dien-3-one]	–
93 to 95 °C	7.2 µM	COc1cc(C=CC(=O)C=Cc2ccc(O)cc2)cc(OC)c1O [Compound 4d, 1-(4-Hydroxy-3,5-dimethoxyphenyl)-5-(4-hydroxyphenyl)penta-1,4-dien-3-one]	–
181 to 183 °C	4.64 µM	O=C(C=Cc1ccc(O)cc1)C=Cc1ccc(O)c(O)c1 [Compound 4c, 1-(3,4-Dihydroxyphenyl)-5-(4-hydroxyphenyl)penta-1,4-dien-3-one]	–
–	> 200 µM	1-(3,4-Dihydroxyphenyl)-5-(4-methoxyphenyl)penta-1,4-dien-3-one [Compound 4i]	–
–	< 100 µM	1-(4-Hydroxy-3,5-dimethoxyphenyl)-5-(4-hydroxy-3-methoxyphenyl)penta-1,4-dien-3-one [Compound 4h]	fold difference in activity versus 4c (mushroom tyrosinase [1]; decrease relative to 4c (IC50 = 4.64 μM)): > 16 fold
98 to 101 °C	46.2 µM	COc1cc(C=CC(=O)C=Cc2ccc(O)cc2)ccc1O [Compound 4b, 1-(4-Hydroxy-3-methoxyphenyl)-5-(4-hydroxyphenyl)penta-1,4-dien-3-one]	–
–	> 200 µM	1-(3,4-Dihydroxyphenyl)-5-(4-hydroxy-3-methoxyphenyl)penta-1,4-dien-3-one [Compound 4g]	–
